Measurements taken from patent US20020137929A1, “1 - (3-heterocyclylphenyl) isothiourea, -isourea, -guanidine and -amidine herbicidal agents” (Intellectual Property Department, BASF Aktiengesellschaft, priority 1998, published 2002).

Experiments:
[1] = system: CASOB (Sicklepod); assay: Postemergence herbicidal evaluation; assay type: in vivo, Cassia obtusifolia; conditions: postemergence
Outline: (§1)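 Young plants, roughly two weeks from seeding, receive the active ingredient as a sprayed dispersion (acetone/water 50/50, 0.5% TWEEN 20) at 40 psi. Doses span about 0.0156 to 0.500 kg/ha. A visual score from 0 to 9 compares treated with control plants four to five weeks on.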

[2] = system: AMBEL (Ragweed, Common); assay: Preemergence herbicidal evaluation; assay type: in vivo, Ambrosia artemisifolia; conditions: rated 4-5 weeks after treatment
Outline: (§2)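 Scores (0–9) reflect visual comparison with control plants for stand, vigor, malformation, size and chlorosis. Compound was applied to the soil after sowing, before emergence, as an aqueous acetone spray (about 0.0156–0.500 kg/ha), and cups were kept in a greenhouse for 4–5 weeks.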

[3] = system: GLXMAW (Soybean, Williams); assay: Preemergence herbicidal evaluation; assay type: in vivo, Glycine max, (L.) Merr. cv Williams; conditions: rated 4-5 weeks after treatment
Outline: as §2

[4] = system: SETVI (Foxtail, Green); assay: Preemergence herbicidal evaluation; assay type: in vivo, Setaria viridis; conditions: rated 4-5 weeks after treatment
Outline: as §2

[5] = system: MOOVA (Monochoria); assay: Preemergence weed control under flooded paddy conditions; assay type: in vivo, Monochoria vaginalis; conditions: rated 3-4 weeks after treatment
Outline: (§3)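 Ratings on a 0-9 visual scale cover stand, vigor, malformation, size, chlorosis and overall appearance relative to a control, taken three to four weeks post-treatment. Application was into flood water over freshly sown silt loam at roughly 0.0313 to 0.500 kg/ha.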

[6] = system: CYPSE (Flatsedge); assay: Postemergence weed control under flooded paddy conditions; assay type: in vivo, Cyperus serotinus; conditions: postemergence weeds, rated 3 to 4 weeks after treatment
Outline: (§4)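 With weeds 3 to 5 cm tall and rice at the 1.5 to 2.5 leaf stage, containers were flooded and water held 1.5 to 3 cm above soil. Compounds in 50/50 v/v aqueous/acetone went into the flood water at about 0.0313 to 0.500 kg/ha a.i. Effects were visually rated 0–9 against controls after three to four weeks in the greenhouse.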

[7] = system: SAGPY (Arrowhead (Pygmaea)); assay: as above; assay type: in vivo, Sagittaria pygmaea; conditions: postemergence weeds, rated 3 to 4 weeks after treatment
Outline: as §4

[8] = system: GALAP (Galium); assay: Postemergence herbicidal evaluation; assay type: in vivo, Galium aparine; conditions: postemergence
Outline: as §1

[9] = system: ORYSAT (Rice, Tebonnet); assay: Preemergence herbicidal evaluation; assay type: in vivo, Oryza sativa, (L.) Tebonnet; conditions: rated 4-5 weeks after treatment
Outline: as §2

[10] = system: ORYSAT (Rice, Tebonnet); assay: Postemergence herbicidal evaluation; assay type: in vivo, Oryza sativa, (L.) Tebonnet; conditions: postemergence
Outline: as §1

[11] = system: CYPIR (Rice Flatsedge); assay: Postemergence weed control under flooded paddy conditions; assay type: in vivo, Cyperus iria; conditions: postemergence weeds, rated 3 to 4 weeks after treatment
Outline: as §4

[12] = system: ZEAMX (Corn, Field); assay: Postemergence herbicidal evaluation; assay type: in vivo, Zea mays; conditions: postemergence
Outline: as §1

[13] = system: CYPSE (Flatsedge); assay: Preemergence weed control under flooded paddy conditions; assay type: in vivo, Cyperus serotinus; conditions: rated 3-4 weeks after treatment
Outline: as §3

[14] = system: CHEAL (Lambsquarters, Common); assay: Postemergence herbicidal evaluation; assay type: in vivo, Chenopodium album; conditions: postemergence
Outline: as §1

C=CCOC(=O)CC1SC(=Nc2cc(-n3c(=O)cc(C(F)(F)F)n(C)c3=O)c(F)cc2Cl)N(CC=C)C1=O (stereo not shown) [Compound 65, Allyl 3-allyl-2-{(2-chloro-5-[3,6-dihydro-3-methyl-2,6-dioxo-4-(trifluoromethyl)-1(2H)-pyrimidinyl]-4-fluorophenyl}imino}-4-oxo-5-thiazolidineacetate]
CASOB herbicidal rating ([1]; rate 0.0158 kg/ha): 0.0
CASOB herbicidal rating ([1]; rate 0.0315 kg/ha): 2.0
CASOB herbicidal rating ([1]; rate 0.0630 kg/ha): 3.0
Preemergence herbicidal rating AMBEL ([2]; rate 0.0156 kg/ha): 1.0
Preemergence herbicidal rating AMBEL ([2]; rate 0.0313 kg/ha): 2.0
Preemergence herbicidal rating AMBEL ([2]; rate 0.0625 kg/ha): 4.0
Preemergence herbicidal rating AMBEL ([2]; rate 0.1250 kg/ha): 9.0
Preemergence herbicidal rating AMBEL ([2]; rate 0.2500 kg/ha): 9.0
Preemergence herbicidal rating GLXMAW ([3]; rate 0.0156 kg/ha): 1.0
Preemergence herbicidal rating GLXMAW ([3]; rate 0.0313 kg/ha): 0.0
Preemergence herbicidal rating GLXMAW ([3]; rate 0.0625 kg/ha): 1.0
Preemergence herbicidal rating GLXMAW ([3]; rate 0.1250 kg/ha): 2.0
Preemergence herbicidal rating GLXMAW ([3]; rate 0.2500 kg/ha): 5.0
Preemergence herbicidal rating SETVI ([4]; rate 0.0156 kg/ha): 0.0
Preemergence herbicidal rating SETVI ([4]; rate 0.0313 kg/ha): 1.0
Preemergence herbicidal rating SETVI ([4]; rate 0.0625 kg/ha): 2.0
Preemergence herbicidal rating SETVI ([4]; rate 0.1250 kg/ha): 7.0
Preemergence herbicidal rating SETVI ([4]; rate 0.2500 kg/ha): 9.0
MOOVA herbicidal effect rating ([5]; 0.0313 kg/ha): 9.0
MOOVA herbicidal effect rating ([5]; 0.0625 kg/ha): 9.0
MOOVA herbicidal effect rating ([5]; 0.1250 kg/ha): 9.0
MOOVA herbicidal effect rating ([5]; 0.2500 kg/ha): 9.0
Herbicidal rating CYPSE ([6]; Rate 0.0313 kg/ha): 0.0
Herbicidal rating CYPSE ([6]; Rate 0.0625 kg/ha): 0.0
Herbicidal rating CYPSE ([6]; Rate 0.1250 kg/ha): 0.0
Herbicidal rating CYPSE ([6]; Rate 0.2500 kg/ha): 0.0
Herbicidal rating SAGPY ([7]; Rate 0.0313 kg/ha): 2.0
Herbicidal rating SAGPY ([7]; Rate 0.0625 kg/ha): 4.0
Herbicidal rating SAGPY ([7]; Rate 0.1250 kg/ha): 5.0
Herbicidal rating SAGPY ([7]; Rate 0.2500 kg/ha): 7.0
GALAP herbicidal rating ([8]; rate 0.0158 kg/ha): 2.0
GALAP herbicidal rating ([8]; rate 0.0315 kg/ha): 5.0
GALAP herbicidal rating ([8]; rate 0.0630 kg/ha): 9.0
Preemergence herbicidal rating ORYSAT ([9]; rate 0.0156 kg/ha): 0.0
Preemergence herbicidal rating ORYSAT ([9]; rate 0.0313 kg/ha): 0.0
Preemergence herbicidal rating ORYSAT ([9]; rate 0.0625 kg/ha): 1.0
Preemergence herbicidal rating ORYSAT ([9]; rate 0.1250 kg/ha): 1.0
Preemergence herbicidal rating ORYSAT ([9]; rate 0.2500 kg/ha): 6.0
ORYSAT herbicidal rating ([10]; rate 0.0158 kg/ha): 4.0
ORYSAT herbicidal rating ([10]; rate 0.0315 kg/ha): 6.0
ORYSAT herbicidal rating ([10]; rate 0.0630 kg/ha): 6.0
Herbicidal rating CYPIR ([11]; Rate 0.0313 kg/ha): 6.0
Herbicidal rating CYPIR ([11]; Rate 0.0625 kg/ha): 7.0
Herbicidal rating CYPIR ([11]; Rate 0.1250 kg/ha): 7.0
Herbicidal rating CYPIR ([11]; Rate 0.2500 kg/ha): 8.0
ZEAMX herbicidal rating ([12]; rate 0.0158 kg/ha): 8.0
ZEAMX herbicidal rating ([12]; rate 0.0315 kg/ha): 8.0
ZEAMX herbicidal rating ([12]; rate 0.0630 kg/ha): 7.5
CYPSE herbicidal effect rating ([13]; 0.0313 kg/ha): 0.0
CYPSE herbicidal effect rating ([13]; 0.0625 kg/ha): 0.0
CYPSE herbicidal effect rating ([13]; 0.1250 kg/ha): 0.0
CYPSE herbicidal effect rating ([13]; 0.2500 kg/ha): 0.0
CHEAL herbicidal rating ([14]; rate 0.0158 kg/ha): 9.0
CHEAL herbicidal rating ([14]; rate 0.0315 kg/ha): 9.0
CHEAL herbicidal rating ([14]; rate 0.0630 kg/ha): 9.0
